Where two headings read alike, the source gives them in different places.
Columns and labels:
[1] = assay type: in vivo, human; details: + means a rise, − a fall
Experimental: In these patients, and also in a further series of patients, the levels of DGLA, AA, EPA and DHA were measured in human red cells before starting treatment and after 12 weeks. As expected there was a dose-related rise in EPA which was greater the greater the dose. It was also expected that there would be a progressive decline in AA, the larger the EPA dose, the greater the fall in AA.

[2] = tested on: schizophrenia in patients; test: Trial of placebo and three doses of EPA in schizophrenia patients also taking clozapine, assessed by PANSS at baseline and 12 weeks; assay type: in vivo, human
Experimental: A trial was conducted of the administration of a placebo and three different doses of EPA, 1 g, 2 g and 4 g/day in the treatment of schizophrenia in patients who were also taking the antischizophrenic drug clozapine. […] 31 patents were entered into the study and followed for 12 weeks. They were assessed at baseline and 12 weeks using the Positive and Negative Symptom Scale for Schizophrenia (PANSS). Placebo produced a small effect, 1 g/day produced a larger effect, 2 g/day produced a large effect of 26.0% compared to the usual 15-20% improvements on this scale generated by existing drugs for schizophrenia.

[3] = tested on: patients with schizophrenia; test: AA given to two patients who had already been taking EPA; assay type: in vivo, human; details: AA 1 g/day added in two patients already taking 2 g/day EPA for 3 months
From the text: The conclusion to be drawn from these studies is that EPA is desirable, not in itself but because it raises the AA level in membrane phospholipids. High doses of EPA, far from being valuable in themselves, may be undesirable because they lead to excessive loss of AA from membranes. The way to get around this issue, and to boost the clearly desirable effects of EPA, is to keep to relatively low doses of EPA, but also to boost the level of AA by administering the EPA with either AA or one of its precursors, DGLA or gamma-linolenic acid GLA.

[4] = tested on: patients with schizophrenia; test: Pilot study of AA alone in five patients with schizophrenia; assay type: in vivo, human; details: AA given alone
From the text: This interpretation was supported by a pilot study in which AA itself was given to five patients with schizophrenia. […] The administration of AA, without EPA to inhibit phospholipases, may lead to increased formation of eicosanoids rather than to incorporation of AA into phospholipids.

SMILES	Change from baseline to 12 weeks in red cell concentration of AA ([1]; 1 g/d)	Change from baseline to 12 weeks in red cell concentration of AA ([1]; 2 g/d)	Change from baseline to 12 weeks in red cell concentration of AA ([1]; 4 g/d)	Percentage improvement from baseline to 12 weeks on PANSS ([2]; 1 g/day)	Percentage improvement from baseline to 12 weeks on PANSS ([2]; 2 g/day)	Percentage improvement from baseline to 12 weeks on PANSS ([2]; 4 g/day)	Condition of patients with schizophrenia [3]	Condition of patients with schizophrenia [4]
CC/C=C\C/C=C\C/C=C\C/C=C\C/C=C\CCCC(=O)OCC [ethyl eicosapentaenoate]	+2.7 μg/g	+29.4 μg/g	-26.5 µg/g	18.3%	26.0%	16.3%		
CC/C=C\C/C=C\C/C=C\C/C=C\C/C=C\CCCC(=O)O [EPA, eicosapentaenoic acid]					26.0%			
CCCCC/C=C\C/C=C\C/C=C\C/C=C\CCCC(=O)O [AA, arachidonic acid]							substantial further improvement	their condition deteriorated

Reference: patent US6479544B1, “Therapeutic combinations of fatty acids” (Laxdale Limited, priority 2001, dated 2002)
